Reference: ChEMBL document CHEMBL3734671, “Design and synthesis of an in vivo-efficacious PIM3 kinase inhibitor as a candidate anti-pancreatic cancer agent” (Bioorg Med Chem Lett, 2015)
In brackets after ≈: the same amount, converted by molar mass.

What was measured:
[1] = biological target: Fibroblast growth factor receptor 1 (Homo sapiens) (UniProt P11362); assay: Inhibition of FGFR1 (unknown origin) at 200 nM by electrophoretic mobility shift assay
[2] = biological target: Tyrosine-protein kinase ABL1 (Homo sapiens) (UniProt P00519); assay: Inhibition of ABL (unknown origin) at 200 nM by electrophoretic mobility shift assay
[3] = biological target: Tyrosine-protein kinase SYK (Homo sapiens) (UniProt P43405); assay: Inhibition of SYK (unknown origin) at 200 nM by electrophoretic mobility shift assay
[4] = biological target: T1, Serine/threonine-protein kinase pim-3 (Homo sapiens, UniProt Q86V86); assay: Inhibition of PIM3 (unknown origin) at 200 nM by electrophoretic mobility shift assay
[5] = biological target: Serine/threonine-protein kinase Sgk1 (Homo sapiens) (UniProt O00141); assay: Inhibition of SGK (unknown origin) at 200 nM by electrophoretic mobility shift assay
[6] = biological target: Serine/threonine-protein kinase D2 (Homo sapiens) (UniProt Q9BZL6); assay: Inhibition of PKD2 (unknown origin) at 200 nM by electrophoretic mobility shift assay
[7] = Growth inhibition of human PANC1 cells after 72 hrs by CCK-8 assay; type: functional, cell-based; settings: PANC-1, 72 h
[8] = biological target: RAC-alpha serine/threonine-protein kinase (Homo sapiens) (UniProt P31749); assay: Inhibition of AKT1 (unknown origin) at 200 nM by electrophoretic mobility shift assay
[9] = biological target: High affinity nerve growth factor receptor (Homo sapiens) (UniProt P04629); assay: Inhibition of TRKA (unknown origin) at 200 nM by electrophoretic mobility shift assay
[10] = biological target: Mitogen-activated protein kinase kinase kinase 9 (Homo sapiens) (UniProt P80192); assay: Inhibition of MLK1 (unknown origin) at 200 nM by ELISA
[11] = biological target: Mitogen-activated protein kinase 1 (Homo sapiens) (UniProt P28482); assay: Inhibition of Erk2 (unknown origin) at 200 nM by electrophoretic mobility shift assay
[12] = biological target: cAMP-dependent protein kinase catalytic subunit alpha (Homo sapiens) (UniProt P17612); assay: Inhibition of PKACalpha (unknown origin) at 200 nM by electrophoretic mobility shift assay
[13] = biological target: Tyrosine-protein kinase ITK/TSK (Homo sapiens) (UniProt Q08881); assay: Inhibition of ITK (unknown origin) at 200 nM by electrophoretic mobility shift assay
[14] = biological target: CYP2D6 (Homo sapiens, UniProt P10635); assay: Inhibition of CYP2D6 (unknown origin) at 10 uM; type: ADME
[15] = biological target: Dual specificity tyrosine-phosphorylation-regulated kinase 1B (Homo sapiens) (UniProt Q9Y463); assay: Inhibition of DYRK1B (unknown origin) at 200 nM by electrophoretic mobility shift assay
[16] = biological target: Mitogen-activated protein kinase 9 (Homo sapiens) (UniProt P45984); assay: Inhibition of JNK2 (unknown origin) at 200 nM by electrophoretic mobility shift assay
[17] = biological target: Proto-oncogene tyrosine-protein kinase Src (Homo sapiens) (UniProt P12931); assay: Inhibition of SRC (unknown origin) at 200 nM by electrophoretic mobility shift assay
[18] = biological target: Interleukin-1 receptor-associated kinase 4 (Homo sapiens) (UniProt Q9NWZ3); assay: Inhibition of IRAK4 (unknown origin) at 200 nM by electrophoretic mobility shift assay
[19] = biological target: Calcium/calmodulin-dependent protein kinase type IV (Homo sapiens) (UniProt Q16566); assay: Inhibition of CaMK4 (unknown origin) at 200 nM by electrophoretic mobility shift assay
[20] = biological target: CYP3A4 (Homo sapiens, UniProt P08684); assay: Inhibition of CYP3A4 (unknown origin) at 10 uM; type: ADME
[21] = biological target: Protein-tyrosine kinase 2-beta (Homo sapiens) (UniProt Q14289); assay: Inhibition of PYK2 (unknown origin) at 200 nM by electrophoretic mobility shift assay
[22] = biological target: Tyrosine-protein kinase JAK3 (Homo sapiens) (UniProt P52333); assay: Inhibition of JAK3 (unknown origin) at 200 nM by electrophoretic mobility shift assay
[23] = biological target: AMP-activated protein kinase, AMPK (Homo sapiens) (UniProt P54646+O43741+P54619+Q9UGJ0+Q9Y478+Q13131+Q9UGI9); assay: Inhibition of AMPKalpha1/beta1/gama1 (unknown origin) at 200 nM by electrophoretic mobility shift assay; type: protein-complex assay
[24] = biological target: Serine/threonine-protein kinase pim-2 (Homo sapiens, UniProt Q9P1W9); assay: Inhibition of PIM2 (unknown origin) at 200 nM by electrophoretic mobility shift assay
[25] = biological target: T1, Serine/threonine-protein kinase pim-3; assay: Inhibition of PIM3 (unknown origin) using FL-Peptide 1 (5-FAM-AKRRRLSSLRA-COOH) substrate incubated for 2 hrs by electrophoretic mobility shift assay
[26] = biological target: Serine/threonine-protein kinase Chk1 (Homo sapiens) (UniProt O14757); assay: Inhibition of CHK1 (unknown origin) at 200 nM by electrophoretic mobility shift assay
[27] = biological target: Ephrin type-B receptor 4 (Homo sapiens) (UniProt P54760); assay: Inhibition of EPHB4 (unknown origin) at 200 nM by electrophoretic mobility shift assay
[28] = biological target: RAF proto-oncogene serine/threonine-protein kinase (Homo sapiens) (UniProt P04049); assay: Inhibition of RAF1 (unknown origin) at 200 nM by ELISA
[29] = biological target: CYP2C19 (Homo sapiens, UniProt P33261); assay: Inhibition of CYP2C19 (unknown origin) at 10 uM; type: ADME
[30] = biological target: CYP2C9 (Homo sapiens, UniProt P11712); assay: Inhibition of CYP2C9 (unknown origin) at 10 uM; type: ADME
[31] = Aqueous solubility in PBS buffer solution at pH 7.4; type: physicochemical
[32] = biological target: Hepatocyte growth factor receptor (Homo sapiens) (UniProt P08581); assay: Inhibition of MET (unknown origin) at 200 nM by electrophoretic mobility shift assay
[33] = species on record: Homo sapiens; assay: Inhibition of p70S6k (unknown origin) at 200 nM by electrophoretic mobility shift assay
[34] = biological target: 3-phosphoinositide-dependent protein kinase 1 (Homo sapiens) (UniProt O15530); assay: Inhibition of PDK1 (unknown origin) at 200 nM by electrophoretic mobility shift assay
[35] = biological target: Dual specificity mitogen-activated protein kinase kinase 1 (Homo sapiens) (UniProt Q02750); assay: Inhibition of MAP2K1 (unknown origin) at 200 nM by ELISA
[36] = biological target: hERG (KCNH2) (Homo sapiens, UniProt Q12809); assay: Inhibition of human ERG at 10 uM by patch-clamp method
[37] = biological target: Receptor-type tyrosine-protein kinase FLT3 (Homo sapiens) (UniProt P36888); assay: Inhibition of FLT3 (unknown origin) at 200 nM by electrophoretic mobility shift assay
[38] = biological target: Mitogen-activated protein kinase 14 (Homo sapiens) (UniProt Q16539); assay: Inhibition of p38alpha (unknown origin) at 200 nM by electrophoretic mobility shift assay

CYP2C9, sequence (P11712 whole entry): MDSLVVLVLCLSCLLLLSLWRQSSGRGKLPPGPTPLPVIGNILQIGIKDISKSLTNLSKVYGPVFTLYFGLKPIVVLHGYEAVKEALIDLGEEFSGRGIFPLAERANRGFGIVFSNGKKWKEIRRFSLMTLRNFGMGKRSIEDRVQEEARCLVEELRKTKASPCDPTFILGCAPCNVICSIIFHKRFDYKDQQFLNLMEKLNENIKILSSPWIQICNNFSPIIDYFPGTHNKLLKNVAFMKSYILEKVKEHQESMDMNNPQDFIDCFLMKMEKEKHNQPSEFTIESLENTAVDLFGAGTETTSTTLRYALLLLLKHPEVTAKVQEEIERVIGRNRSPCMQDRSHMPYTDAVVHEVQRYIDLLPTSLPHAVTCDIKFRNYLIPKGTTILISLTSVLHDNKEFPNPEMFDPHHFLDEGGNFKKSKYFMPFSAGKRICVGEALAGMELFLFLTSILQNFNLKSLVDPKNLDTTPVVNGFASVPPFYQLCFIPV
CYP2C19, sequence (P33261 whole entry): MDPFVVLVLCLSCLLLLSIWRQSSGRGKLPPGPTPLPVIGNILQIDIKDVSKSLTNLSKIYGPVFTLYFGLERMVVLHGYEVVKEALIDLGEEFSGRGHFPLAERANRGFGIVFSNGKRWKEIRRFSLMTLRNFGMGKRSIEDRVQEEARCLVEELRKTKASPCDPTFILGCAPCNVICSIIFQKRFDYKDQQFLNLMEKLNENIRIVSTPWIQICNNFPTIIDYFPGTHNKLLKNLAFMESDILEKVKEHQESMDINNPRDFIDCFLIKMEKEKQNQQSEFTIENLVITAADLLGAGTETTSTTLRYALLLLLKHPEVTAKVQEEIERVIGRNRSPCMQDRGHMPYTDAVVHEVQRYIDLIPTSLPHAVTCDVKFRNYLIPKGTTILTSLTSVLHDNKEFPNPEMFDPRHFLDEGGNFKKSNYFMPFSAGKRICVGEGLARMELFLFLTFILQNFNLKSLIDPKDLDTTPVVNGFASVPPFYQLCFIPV
Interleukin-1 receptor-associated kinase 4 (Homo sapiens), sequence (Q9NWZ3 whole entry): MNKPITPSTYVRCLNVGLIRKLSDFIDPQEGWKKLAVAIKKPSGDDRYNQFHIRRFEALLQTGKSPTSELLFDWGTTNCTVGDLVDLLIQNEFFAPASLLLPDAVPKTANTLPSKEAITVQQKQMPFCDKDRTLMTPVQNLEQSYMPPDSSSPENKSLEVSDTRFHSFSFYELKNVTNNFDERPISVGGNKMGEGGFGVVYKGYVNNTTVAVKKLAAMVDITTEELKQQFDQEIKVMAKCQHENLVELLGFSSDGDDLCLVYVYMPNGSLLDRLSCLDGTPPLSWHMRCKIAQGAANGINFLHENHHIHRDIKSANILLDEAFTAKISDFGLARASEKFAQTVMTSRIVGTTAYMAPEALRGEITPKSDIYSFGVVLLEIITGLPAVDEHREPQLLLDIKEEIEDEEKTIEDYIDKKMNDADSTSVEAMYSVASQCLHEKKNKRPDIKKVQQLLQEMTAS
High affinity nerve growth factor receptor (Homo sapiens), sequence (P04629 33-796 limits assumed): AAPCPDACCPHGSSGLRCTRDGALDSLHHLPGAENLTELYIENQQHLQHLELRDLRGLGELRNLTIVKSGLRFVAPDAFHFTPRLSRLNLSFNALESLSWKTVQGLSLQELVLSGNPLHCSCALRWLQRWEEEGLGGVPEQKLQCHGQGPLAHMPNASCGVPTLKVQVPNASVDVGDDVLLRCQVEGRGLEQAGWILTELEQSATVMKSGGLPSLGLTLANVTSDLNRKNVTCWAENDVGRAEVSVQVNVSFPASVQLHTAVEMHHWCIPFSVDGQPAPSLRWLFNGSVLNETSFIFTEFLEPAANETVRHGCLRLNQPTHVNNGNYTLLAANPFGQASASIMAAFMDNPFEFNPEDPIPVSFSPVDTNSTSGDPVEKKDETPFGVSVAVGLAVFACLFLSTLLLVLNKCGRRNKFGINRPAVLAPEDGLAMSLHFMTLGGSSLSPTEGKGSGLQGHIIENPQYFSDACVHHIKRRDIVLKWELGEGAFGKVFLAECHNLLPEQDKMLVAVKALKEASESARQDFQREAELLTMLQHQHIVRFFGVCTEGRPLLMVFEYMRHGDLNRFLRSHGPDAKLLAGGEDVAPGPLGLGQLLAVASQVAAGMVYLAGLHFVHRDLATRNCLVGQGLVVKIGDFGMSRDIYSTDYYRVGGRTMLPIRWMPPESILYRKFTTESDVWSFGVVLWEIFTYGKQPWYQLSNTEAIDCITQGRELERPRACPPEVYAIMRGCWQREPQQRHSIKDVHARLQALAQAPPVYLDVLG
Tyrosine-protein kinase ABL1 (Homo sapiens), sequence (P00519 whole entry): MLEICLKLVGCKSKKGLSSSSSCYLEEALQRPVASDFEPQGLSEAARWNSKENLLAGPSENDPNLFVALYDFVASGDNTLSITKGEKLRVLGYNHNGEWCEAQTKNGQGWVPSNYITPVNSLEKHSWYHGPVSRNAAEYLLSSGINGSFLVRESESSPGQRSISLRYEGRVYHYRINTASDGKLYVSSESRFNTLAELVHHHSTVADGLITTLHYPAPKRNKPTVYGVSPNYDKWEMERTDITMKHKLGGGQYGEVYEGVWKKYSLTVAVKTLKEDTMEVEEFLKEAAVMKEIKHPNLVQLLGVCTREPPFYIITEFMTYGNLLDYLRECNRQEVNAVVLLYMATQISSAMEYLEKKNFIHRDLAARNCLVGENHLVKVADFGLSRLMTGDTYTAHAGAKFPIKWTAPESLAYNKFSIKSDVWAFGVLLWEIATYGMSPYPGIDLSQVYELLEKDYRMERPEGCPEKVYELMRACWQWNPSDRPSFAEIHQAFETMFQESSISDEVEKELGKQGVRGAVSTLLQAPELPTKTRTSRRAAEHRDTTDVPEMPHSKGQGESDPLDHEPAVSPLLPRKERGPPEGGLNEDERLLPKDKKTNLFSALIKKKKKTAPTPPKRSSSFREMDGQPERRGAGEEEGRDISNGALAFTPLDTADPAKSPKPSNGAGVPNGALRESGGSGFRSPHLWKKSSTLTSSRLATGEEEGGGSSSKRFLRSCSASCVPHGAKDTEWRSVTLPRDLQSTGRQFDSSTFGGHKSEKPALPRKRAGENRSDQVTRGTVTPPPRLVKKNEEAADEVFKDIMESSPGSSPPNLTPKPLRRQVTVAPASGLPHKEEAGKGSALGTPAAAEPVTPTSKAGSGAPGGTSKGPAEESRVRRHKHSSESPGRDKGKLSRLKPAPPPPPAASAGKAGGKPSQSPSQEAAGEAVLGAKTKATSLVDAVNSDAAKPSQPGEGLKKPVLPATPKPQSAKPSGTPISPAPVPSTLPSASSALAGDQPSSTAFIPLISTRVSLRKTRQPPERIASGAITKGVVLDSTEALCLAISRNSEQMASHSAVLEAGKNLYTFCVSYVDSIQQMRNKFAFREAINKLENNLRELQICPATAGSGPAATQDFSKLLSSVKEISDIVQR
Dual specificity mitogen-activated protein kinase kinase 1 (Homo sapiens), sequence (Q02750 whole entry): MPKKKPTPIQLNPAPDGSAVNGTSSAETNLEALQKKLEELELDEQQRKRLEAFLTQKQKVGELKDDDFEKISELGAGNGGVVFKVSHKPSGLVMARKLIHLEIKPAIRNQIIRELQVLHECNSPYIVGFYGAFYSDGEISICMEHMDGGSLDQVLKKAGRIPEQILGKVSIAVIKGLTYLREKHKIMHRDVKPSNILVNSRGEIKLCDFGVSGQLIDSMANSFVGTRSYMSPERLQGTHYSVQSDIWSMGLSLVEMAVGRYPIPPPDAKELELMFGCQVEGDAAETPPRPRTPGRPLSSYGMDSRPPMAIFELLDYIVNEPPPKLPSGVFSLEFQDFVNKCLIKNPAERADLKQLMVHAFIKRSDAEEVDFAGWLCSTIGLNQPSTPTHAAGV
Dual specificity tyrosine-phosphorylation-regulated kinase 1B (Homo sapiens), sequence (Q9Y463 whole entry, looked up): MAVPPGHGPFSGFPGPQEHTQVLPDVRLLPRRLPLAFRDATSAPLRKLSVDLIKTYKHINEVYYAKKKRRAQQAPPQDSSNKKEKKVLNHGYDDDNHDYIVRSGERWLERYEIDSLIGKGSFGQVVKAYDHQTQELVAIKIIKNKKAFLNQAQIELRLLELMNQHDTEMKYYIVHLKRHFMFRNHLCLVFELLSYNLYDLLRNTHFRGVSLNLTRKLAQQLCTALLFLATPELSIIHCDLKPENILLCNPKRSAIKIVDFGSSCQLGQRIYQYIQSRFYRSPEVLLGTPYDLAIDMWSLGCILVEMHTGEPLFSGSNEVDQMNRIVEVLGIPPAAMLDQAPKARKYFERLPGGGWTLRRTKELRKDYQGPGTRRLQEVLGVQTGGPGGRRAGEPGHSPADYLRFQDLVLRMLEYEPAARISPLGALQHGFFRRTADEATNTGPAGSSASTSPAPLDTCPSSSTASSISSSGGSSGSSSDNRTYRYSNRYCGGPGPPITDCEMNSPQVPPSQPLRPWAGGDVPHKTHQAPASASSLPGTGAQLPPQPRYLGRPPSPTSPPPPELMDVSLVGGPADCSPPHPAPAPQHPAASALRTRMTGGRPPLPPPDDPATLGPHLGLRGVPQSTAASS
3-phosphoinositide-dependent protein kinase 1 (Homo sapiens), sequence (O15530 whole entry): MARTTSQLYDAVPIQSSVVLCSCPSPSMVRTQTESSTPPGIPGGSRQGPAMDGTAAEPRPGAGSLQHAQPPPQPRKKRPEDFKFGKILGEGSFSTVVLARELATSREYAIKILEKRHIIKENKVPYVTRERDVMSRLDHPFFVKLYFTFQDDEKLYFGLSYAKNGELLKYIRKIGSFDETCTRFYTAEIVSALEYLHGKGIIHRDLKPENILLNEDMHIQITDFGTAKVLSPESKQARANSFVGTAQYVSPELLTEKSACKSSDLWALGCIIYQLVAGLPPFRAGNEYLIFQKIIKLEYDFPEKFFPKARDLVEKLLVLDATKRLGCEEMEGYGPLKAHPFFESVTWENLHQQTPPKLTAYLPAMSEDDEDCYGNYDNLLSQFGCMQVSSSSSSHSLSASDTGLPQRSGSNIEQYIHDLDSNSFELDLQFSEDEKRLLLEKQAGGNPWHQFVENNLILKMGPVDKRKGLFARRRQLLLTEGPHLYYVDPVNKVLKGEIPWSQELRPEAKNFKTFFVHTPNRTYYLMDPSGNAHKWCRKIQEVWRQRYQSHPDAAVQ

Compound | inhibition [1] | inhibition [2] | inhibition [3] | inhibition [4] | inhibition [5] | inhibition [6] | IC50 [7] | inhibition [8] | inhibition [9] | inhibition [10] | inhibition [11] | inhibition [12] | inhibition [13] | inhibition at 10 µM [14] | inhibition [15] | inhibition [16] | inhibition [17] | inhibition [18] | inhibition [19] | inhibition at 10 µM [20] | further results
COc1ccc2c(c1C(C)N1CCNCC1)O/C(=C\c1n[nH]c3ncccc13)C2=O (stereo unspecified) | 3.1% | 1% | 5.3% | 99% | 0.6% | 13.1% | 4000 nM | 1.7% | 10.3% | -1.8% | 0.2% | 18.4% | 2% | 14% | 48% | -0.5% | 0.7% | -0.6% | -1.5% | < 1% | inhibition [21]: 11.2%; inhibition [22]: 4.4%; inhibition [23]: 8.6%; inhibition [24]: 30.2%; IC50 [25]: 2.5 nM; inhibition [26]: 4.1%; inhibition [27]: 9.4%; inhibition [28]: -9.9%; inhibition at 10 µM [29]: 16%; inhibition at 10 µM [30]: < 1%; solubility [31]: 558 µM (≈ 226 µg/mL); inhibition [32]: 0.5%; inhibition [33]: 47.3%; inhibition [34]: 0.2%; inhibition [35]: -0.4%; inhibition at 10 µM [36]: 34%; inhibition [37]: 68%; inhibition [38]: -1%
COc1ccc2c(c1CN1CCNCC1)O/C(=C\c1n[nH]c3ncccc13)C2=O | -4% | -4.1% | -7.5% | 102% | 4.3% | 31.6% | 5600 nM | -0.2% | 1.8% | -3.4% | 4.9% | 4% | 3.5% | 23% | 24.8% | 1.8% | -0.9% | -3.8% | -4.6% | 39% | inhibition [21]: -0.4%; inhibition [22]: 1.5%; inhibition [23]: 1.3%; inhibition [24]: 28.4%; IC50 [25]: 1.8 nM; inhibition [26]: 9.2%; inhibition [27]: -3.1%; inhibition [28]: 11.3%; inhibition at 10 µM [29]: < 1%; inhibition at 10 µM [30]: < 1%; solubility [31]: 182 µM (≈ 71.2 µg/mL); inhibition [32]: -2.3%; inhibition [33]: 66.5%; inhibition [34]: -3.7%; inhibition [35]: -7.7%; inhibition at 10 µM [36]: 34%; inhibition [37]: 55.5%; inhibition [38]: -1.8%
